The record followed here is US7622481B2, “Antibacterial compounds” (priority 2003, dated 2009).

Structures can show the parent of a compound that is named as a salt. Where two headings read alike, the source gives them in different places. Some results are limits rather than exact numbers.

This experiment can be described thus: MIC of test compounds against various organisms. Type of experiment: cell-based. As for the experimental part:
The MIC (μg/ml) of test compounds against various organisms was determined including:
S. epidermidis CL7, S. aureus WCUH29, S. pneumoniae 1629, S. pyogenes CN10, H. influenzae ATCC 49247, E. faecalis 2, M. catarrhalis Ravasio, E. coli 7623.

The mark [1] stands for this setting: versus all these organisms (panel of 8 strains), read-out: MIC.

As usually defined, the MIC is the lowest concentration that inhibits growth of the organism. `N#Cc1ccc2cccc(NC(=O)[C@]3(O)CC[C@@H](NCc4cc5c(cn4)OCCO5)CC3)c2n1` [Example 38, t-4-[(2,3-Dihydro-[1,4]dioxino[2,3-c]pyridin-7-ylmethyl)-amino]-1-hydroxy-r-cyclohexanecarboxylic acid (2-cyano-quinolin-8-yl)-amide hydrochloride]: under setting [1], the MIC was at most 2 µg/mL. Regarding `CO[C@@H]1C[C@H](C(=O)Nc2cccc3ccc(C)nc23)CC[C@H]1NCc1cc2c(cn1)OCCO2` [Example 39, (1R,3R,4R)-4-[(2,3-Dihydro-[1,4]dioxino[2,3-c]pyridin-7-ylmethyl)-amino]-3-methoxy-cyclohexanecarboxylic acid (2-methyl-quinolin-8-yl)-amide dihydrochloride], the MIC was at most 2 µg/mL. For the compound `N#Cc1ccc2nccc(NC(=O)[C@]3(O)CC[C@@H](NCc4ccc5c(n4)NC(=O)CS5)CC3)c2c1` [Example 40, 1-Hydroxy-t-4-[(3-oxo-3,4-dihydro-2H-pyrido[3,2-b][1,4]thiazin-6-ylmethyl)-amino]-r-cyclohexanecarboxylic acid (6-cyano-quinolin-4-yl)-amide dihydrochloride], under setting [1], the MIC was at most 2 µg/mL.

`Cc1cnc2cccc(NC(=O)[C@]3(O)CC[C@@H](NCc4cc5c(cn4)OCCO5)CC3)c2n1` [Example 42, t-4-[(2,3-Dihydro[1,4]dioxino[2,3-c]pyridin-7-ylmethyl)amino]-1-hydroxy-N-(3-methyl-5-quinoxalinyl)-r-cyclohexanecarboxamide dihydrochloride]: under setting [1], the minimum inhibitory concentration (MIC) is at most 8 µg/mL.
